From patent publication US20240197733A1, “A GABA RECEPTOR MODULATOR FOR USE IN THE TREATMENT OF PAIN” (SANIONA A/S, priority 2021, published 2024) come the findings set out here.

What all share (format): in vivo, Sprague-Dawley rats
In test [1] the test system is electrocutaneous stimulation-induced facial pain rodent model. The experiment in a line: ES-induced facial pain model, mechanical allodynia (Von Frey filaments), acute treatment. The settings on record: 30 mg/kg po, acute, 2 and 4 hours post dosing; p<0.001, p<0.0001 vs vehicle. An excerpt: (§1) The electrocutaneous stimulation-induced facial pain rodent model is a reproducible orofacial pain model in which depilated cheek area of rats are repeatedly subjected to electrical stimulation. Repeated electrical stimulation at low intensities produces craniofacial pain that mimics the behavioral characteristics of TN such as development of mechanical and thermal allodynia at cheeks despite no visible edema, swelling or excessive injury and tissue damage.
(§2) Male wild type, Sprague-Dawley rats (Charles River Laboratories) born in-house at AfaSci Research Laboratory between May 24, 2020 to May 28, 2020. At approximately 3 months of age (approximately 350 g-450 g body weight) the rats were deemed suitable for the electrocutaneous stimulation-induced facial pain model. Prior to the experiment, the rats were maintained in group cages (3 rats per cage) in a controlled environment (temperature: 21.5±4.5° C./relative humidity: 35-55%) under a standard 12 h light/12 h dark lighting cycle (lights on at 06:00).
(§3) The required quantity of the compounds are weighed and dissolved in 100% DMSO in a volume amounting to 5% of the total volume while placed on a stirrer. The weight of the compounds refers to the free base weights. Once the solution becomes clear/transparent, the remaining volume of the vehicle is added (30% HPBCD prepared in MQ water) to final concentrations of 0.1, 0.3, and 1 mg/ml for Compound 1 and 3 mg/ml of Carbamazepine. The solutions are kept on a stirrer before- and during administration of the compounds to the animals.
(§4) The experimenter assessing the behavioral responses to drug administration is blinded to the drug treatment to the animals. Each treatment group is coded according the scheme below: • A. Vehicle (5% DMSO+30% HPBCD): 10 ml/kg • B. Compound 1: 1 mg/kg • C. Compound 1: 3 mg/kg • D. Compound 1: 10 mg/kg • F. Carbamazepine: 30 mg/kg
(§5) Second baseline measurement was carried out similarly to day 1. […] For each animal, the average of the two baseline nociceptive measurements were calculated within each pain modality (mechanical, heat- and cold pain), and used as baseline (“Baseline” point on figures).
Similarly, to day 1- and 2, all rats were subjected to acclimatization to test equipment and decapicone followed by measurements of ES-induced facial mechanical- heat- and cold allodynia (“0” time point on figures). […] Compound 1, vehicle and Carbamazepine was administered perorally in doses of 1, 3, and 10 mg/kg (Compound 1) or 30 mg/kg (carbamazepine) and drug effects on pain thresholds were evaluated 2- and 4 hours after drug administration by assessment of mechanical- (von Frey) and thermal hypersensitivity (heat- and cold stimulation respectively).
(§6) Decrease in ES-induced pain threshold was evaluated 22 hours following electrical stimulation of the depilated left cheek area (between the eye and ear ridge, this is a receptive field of trigeminal nerve) of each rat and was manifested as facial withdrawal following application of Von Frey filaments for mechanical allodynia and a heat lamp and acetone test for thermal hyperalgesia and allodynia respectively. Baseline pain behaviors were measured similarly to ES-induced facial pain measurements, except that rats were not subjected to ES stimulation.
Mechanical pain thresholds were assessed by measuring each rat's facial withdrawal threshold (g) in response to von Frey monofilaments (BioSeb). […]

Test [2] has the same test system. The experiment in a line: ES-induced facial pain model, hot thermal hyperalgesia (lamp test, selective C fiber testing), acute treatment. Particulars: 30 mg/kg po, post 4 hours of dose, p<0.0001.
From the text: as §1, §2, §3, §4
Second baseline measurement was carried out similarly to day 1. Immediately following the second baseline recording, each rat received 1 hr of electrocutaneous stimulation at cheek (0.4 mA intensity, 10 ms duration, 1 s inter-pulse interval). For each animal, the average of the two baseline nociceptive measurements were calculated within each pain modality (mechanical, heat- and cold pain), and used as baseline (“Baseline” point on figures).
Similarly, to day 1- and 2, all rats were subjected to acclimatization to test equipment and decapicone followed by measurements of ES-induced facial mechanical- heat- and cold allodynia (“0” time point on figures). Based on the individual rat's mechanical- and thermal hypersensitivity, 40 rats were selected for drug testing. Compound 1, vehicle and Carbamazepine was administered perorally in doses of 1, 3, and 10 mg/kg (Compound 1) or 30 mg/kg (carbamazepine) and drug effects on pain thresholds were evaluated 2- and 4 hours after drug administration by assessment of mechanical- (von Frey) and thermal hypersensitivity (heat- and cold stimulation respectively).
as §6
Immediately following assessment of mechanical pain threshold, thermal (hot- and cold induced) pain was determined. […]

For test [3] the test system is unchanged. The test is described as follows: ES-induced facial pain model, cold thermal allodynia (acetone test), acute treatment. The settings on record: 30 mg/kg po, 2 and 4 hrs post dose, p<0.001 and p<0.0001 vs vehicle.
From the text: as §1, §2
The required quantity of the compounds are weighed and dissolved in 100% DMSO in a volume amounting to 5% of the total volume while placed on a stirrer. The weight of the compounds refers to the free base weights. […]
as §5
Similarly, to day 1- and 2, all rats were subjected to acclimatization to test equipment and decapicone followed by measurements of ES-induced facial mechanical- heat- and cold allodynia (“0” time point on figures). […] Compound 1, vehicle and Carbamazepine was administered perorally in doses of 1, 3, and 10 mg/kg (Compound 1) or 30 mg/kg (carbamazepine) and drug effects on pain thresholds were evaluated 2- and 4 hours after drug administration by assessment of mechanical- (von Frey) and thermal hypersensitivity (heat- and cold stimulation respectively). […]

On to `NC(=O)N1c2ccccc2C=Cc2ccccc21` [Carbamazepine, reference compound], for which the “effect on mechanical allodynia (mechanical pain threshold, Von Frey) vs vehicle” value in test [1] is “significant analgesic effects”. In test [2], the “effect on heat thermal hyperalgesia (facial withdrawal latency) vs vehicle” value is “full reversal of heat hyperalgesia”. For the same compound, the “effect on cold pain threshold (acetone test, facial withdrawal latency) vs vehicle” value in test [3] was “significant enhancement of the cold pain threshold”.
